Where a name gives a salt, the structure may show the parent alone.
Legend:
[1] = tested on: allergic manifestations caused by antigen-antibody interaction; settings: tris(hydroxymethyl)aminomethane salts; U.S. Ser. No. 233,772 and 261,524; cited from earlier work
[2] = tested on: rat passive cutaneous anaphylaxis; assay: rat passive cutaneous anaphylaxis (PCA) test; assay type: in vivo, rat (female Sprague-Dawley); settings: for % Inhibition in Rat PCA: 48 hour sensitization
From the text: The compound under review is first tested in the rat passive cutaneous anaphylaxis test system. This test is employed to determine if the compound does inhibit allergic manifestations. A DSCG biologue will inhibit allergic manifestations. The anti-allergy activity of DSCG biologues vary.
Female Sprague-Dawley 250 gm. rats are skin-sensitized with rat anti-ovalbumin homocytotropic antibody that is heat labile and has a passive cutaneous anaphylaxis titer of (1:128). After a 72-hour latency period, the animals are challenged i.v. with a 4 mg. ovalbumin (OA) + 5 mg. Evans blue dye. Thirty minutes later the extravascular bluing that results from antigen antibody combination at the skin site is read. Antibody dilutions are used such that in control animals a 4 mm spot in the lowest detectable spot, and 4 or 5 lower dilutions are used to give a range of antibody in each animal. Four to five animals are used for each variable in the experiment. Percent inhibition of the PCA assay is calculated by comparing the spot scores of DSCG treated rats with the spot scores of control rats. The spot score is the total number of detectable spots over the number of animals.
DSCG Priming Treatment: Passively sensitized rats are injected i.v. 2.0 hours before antigen challenge i.v. Two hours after an i.v. priming dose of 10 mg./kg. DSCG, the rats are challenged with antigen alone.
The time course of the effective life of DSCG in rats is shown in Table I. DSCG was administered i.p. and was followed by i.v. challenge with 4 mg. ovalbumin and 5 mg. of Evans Blue. Spot score was calculated 30 minutes later from a total of four animals for each time point.
The animals are rested 2 hours between primary i.v. DSCG injection and i.v. antigen challenge, including secondary DSCG dosing. In view of Table I, this time period is of such a length that the effect from the initial dose of DSCG is not a significant factor.
The effect of a time lag between priming doses and secondary doses with regard to the drug sparing effect and the responsiveness of the treated mammal to further treatment with DSCG or a DSCG biologue is shown in Table III. Rats were injected once daily with 10 mg./kg. DSCG for three days. Control rats were also injected with 1.0 ml. of saline at the same time. Twenty and 48 hours after the last dose of DSCG in the three dose series all rats were injected with DSCG. 4 mg. ovalbumin, and 5 mg. of Evans Blue dye.
Th sparing effect using a DSCG biologue, the tris(hydroxymethyl)aminomethane salt of 10-chloro-1,4,6,9-tetrahydro-4,6-dioxopyrido[3,2-g]quinoline-2,8-dicarboxylic acid, referred to as Compound 10 Cl in this Example, is shown in the rat PCA of Table IV. When using this compound in a priming situation, 2.0 mg./kg., 1.0 mg./kg., 0.025 mg./kg. and 0.01 mg./kg. give inhibitions of 93, 86, 44 and 0% respectively. The data of Table IV are obtained in the usual manner except that a 48 hour instead of a 72 hour sensitization period was used.

[3] = tested on: mediators of anaphylaxis; settings: cited from earlier work

## O=C(O)c1cc(=O)c2cc3c(=O)cc(C(=O)O)[nH]c3c(Cl)c2[nH]1 [Compound 10 Cl, tris(hydroxymethyl)aminomethane salt of 10-chloro-1,4,6,9-tetrahydro-4,6-dioxopyrido[3,2-g]quinoline-2,8-dicarboxylic acid]
[1]
  ability to prophylactically protect against allergic manifestations: have this ability to prophylactically protect against allergic manifestations
[2]; 0.01 mg./kg. maintenance dose, primed with 2.0 or 1.0 mg./kg.
  sparing: sparing is seen
[2]; 0.01 mg./kg. priming
  inhibition in a priming situation: 0%
[2]; 0.025 mg./kg. priming
  inhibition in a priming situation: 44%
[2]; 1.0 mg./kg. priming
  inhibition in a priming situation: 86%
[2]; 2.0 mg./kg. priming
  inhibition in a priming situation: 93%
[2]; priming 0.01 mg./kg., secondary 0.01 mg./kg.
  % Inhibition in Rat PCA: 6%
[2]; priming 0.01 mg./kg., secondary 0.025 mg./kg.
  % Inhibition in Rat PCA: 44%
[2]; priming 0.01 mg./kg., secondary 1.0 mg./kg.
  % Inhibition in Rat PCA: 71%
[2]; priming 0.01 mg./kg., secondary 2.0 mg./kg.
  % Inhibition in Rat PCA: 80%
[2]; priming 0.025 mg./kg., secondary 0.01 mg./kg.
  % Inhibition in Rat PCA: 6%
[2]; priming 0.025 mg./kg., secondary 0.025 mg./kg.
  % Inhibition in Rat PCA: 23%
[2]; priming 0.025 mg./kg., secondary 1.0 mg./kg.
  % Inhibition in Rat PCA: 52%
[2]; priming 0.025 mg./kg., secondary 2.0 mg./kg.
  % Inhibition in Rat PCA: 62%
[2]; priming 1.0 mg./kg., secondary 0.01 mg./kg.
  % Inhibition in Rat PCA: 44%
[2]; priming 1.0 mg./kg., secondary 0.025 mg./kg.
  % Inhibition in Rat PCA: 44%
[2]; priming 1.0 mg./kg., secondary 1.0 mg./kg.
  % Inhibition in Rat PCA: 44%
[2]; priming 1.0 mg./kg., secondary 2.0 mg./kg.
  % Inhibition in Rat PCA: 52%
[2]; priming 2.0 mg./kg., secondary 0.01 mg./kg.
  % Inhibition in Rat PCA: 52%
[2]; priming 2.0 mg./kg., secondary 0.025 mg./kg.
  % Inhibition in Rat PCA: 33%
[2]; priming 2.0 mg./kg., secondary 1.0 mg./kg.
  % Inhibition in Rat PCA: 14%
[2]; priming 2.0 mg./kg., secondary 2.0 mg./kg.
  % Inhibition in Rat PCA: 6%

## CCCCC[C@H](O)/C=C/[C@H]1[C@H](O)CC(=O)[C@@H]1CCCCCCC(=O)O [Prostaglandin E1]
[3]
  response in the DSCG biologue tests: respond appropriately to some of the tests but not all of them

## CCCCC[C@H](O)/C=C/[C@H]1[C@H](O)CC(=O)[C@@H]1C/C=C\CCCC(=O)O [Prostaglandin E2]
[3]
  response in the DSCG biologue tests: respond appropriately to some of the tests but not all of them

Reference: patent US4046910A, “Dosage schedule” (The Upjohn Company, priority 1976, dated 1977)
